MIC data for eight compounds are collected here from patent US3974140A, “Ureidoacetamido-penicillins” (Bayer Aktiengesellschaft, priority 1970, dated 1976).

Assay in all cases: MIC, liquid medium test tube series dilution test
In one experiment the test system is E. coli 14. Type of experiment: cell-based. Particulars: E. coli 14, 24 hours, 37°C. In outline:
(§1)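 Broth tube serial dilution in complete nutrient medium; tubes read after 24 hours' incubation at 37°C. MIC taken as the concentration in the non-turbid tube of the dilution series, expressed in units/ml.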

In another experiment the test system is Klebsiella 63. Type of experiment: cell-based. Particulars: Klebsiella 63, 24 hours, 37°C. A digest of the protocol:
as §1

A further experiment relates to E. coli 183/58. Type of experiment: cell-based. The following applies: E. coli 183/58, 24 hours, 37°C. In outline:
as §1

Experiment [1] concerns Streptoc. faec. ATCC 9790. Type of experiment: cell-based. The following applies: Strep. faec. (Enterococcus) ATCC 9790, 24 hours, 37°C. A digest of the protocol: as §1
For another experiment, the system named is Klebsiella K 10. Type of experiment: cell-based. Particulars: Klebsiella K 10, 24 hours, 37°C. In outline:
as §1

Another experiment has as its system E. coli C 165. Type of experiment: cell-based. The following applies: E. coli C 165, 24 hours, 37°C. A digest of the protocol:
as §1

For a further experiment, the system named is E. coli A 261. Type of experiment: cell-based. The following applies: E. coli A 261, 24 hours, 37°C. A digest of the protocol:
as §1

For a further experiment, the system named is Staph. aureus 133. Type of experiment: cell-based, Staphylococcus aureus. Particulars: Staph. aureus 133, 24 hours, 37°C. A digest of the protocol:
as §1

The next experiment concerns Staph. aureus 1777 E. Type of experiment: cell-based, Staphylococcus aureus. The following applies: 24 hours, 37°C. A digest of the protocol:
as §1

Another experiment deals with Proteus vulg. 1017. Type of experiment: cell-based, Proteus vulgaris. The following applies: Proteus vulg. 1017, 24 hours, 37°C. A digest of the protocol:
as §1

In another experiment the test system is Proteus vulg. 3400. Type of experiment: cell-based, Proteus vulgaris. The following applies: Proteus vulg. 3400, 24 hours, 37°C. In outline:
as §1

The next experiment deals with Psdm. aerug. Walter. Type of experiment: cell-based, Pseudomonas aerug. Particulars: 24 hours, 37°C. A digest of the protocol: as §1
The next experiment deals with Psdm. aerug. Bonn. Type of experiment: cell-based, Pseudomonas aerug. The following applies: 24 hours, 37°C. In outline:
as §1

Molecules are shown by their SMILES. Where only a bound is given, the exact number is not on record here.

Turning to `CC1(C)S[C@@H]2[C@H](NC(=O)[C@H](NC(=O)N3CCNC3=O)c3ccccc3)C(=O)N2[C@H]1C(=O)O` [Example 53, D(-)-α-[(Imidazolidin-2-on-1-yl)-carbonylamino]-benzylpenicillin], the MIC against E. coli 14 was 3,12 units/ml; in the experiment with Klebsiella 63, 25 units/ml; in the experiment with E. coli 183/58, 12,5 units/ml; in experiment [1], 12,5 units/ml; in the experiment on Klebsiella K 10 it was 50 units/ml; in the experiment with E. coli C 165 it was 6,25 units/ml. Also, the MIC is recorded as 400 units/ml in the experiment on E. coli A 261; < 0,78 units/ml against Staph. aureus 133; 200 units/ml against Staph. aureus 1777 E; 6,25 units/ml against Proteus vulg. 1017; 12,5 units/ml against Proteus vulg. 3400; 12,5 units/ml in the experiment with Psdm. aerug. Walter. The MIC against Psdm. aerug. Bonn is 6,25 units/ml.

As to `CN(C(=O)C=Cc1ccccc1)C(=O)N[C@@H](C(=O)N[C@@H]1C(=O)N2[C@@H]1SC(C)(C)[C@@H]2C(=O)O)c1ccccc1` [Example 63, Sodium D(-)-α-(3-cinnamoyl-3-methyl-ureido)-benzylpenicillin], the MIC against E. coli 14 is recorded as below 0.78 units/ml; against Klebsiella 63, 50 units/ml; in the experiment on E. coli 183/58, below 0.78 units/ml; in experiment [1], 50 units/ml; in the experiment on Klebsiella K 10, 50 units/ml; against E. coli C 165, 1.56 units/ml. Besides, the MIC with E. coli A 261 is 400 units/ml; in the experiment on Staph. aureus 133, below 0.78 units/ml; with Staph. aureus 1777 E, 200 units/ml; in the experiment on Proteus vulg. 1017, 1.56 units/ml; against Proteus vulg. 3400, 3.12 units/ml; in the experiment on Psdm. aerug. Walter, 12.5 units/ml. The compound also registered an MIC with Psdm. aerug. Bonn of 6.25 units/ml.

As to `CCN(C(=O)N[C@@H](C(=O)N[C@@H]1C(=O)N2[C@@H]1SC(C)(C)[C@@H]2C(=O)O)c1ccccc1)C(=O)c1ccccc1Cl` [Example 138, Sodium D(-)-α-(3-o-chlorobenzoyl-3-ethyl-ureido)-benzylpenicillin], the MIC in the experiment on E. coli 14 is 6.25 units/ml; against Klebsiella 63, 50 units/ml; against E. coli 183/58 it was 12.5 units/ml; in [1] it was 50 units/ml; against Klebsiella K 10 it was 50 units/ml; in the experiment with E. coli C 165 it was 25 units/ml. For the same compound, the MIC with E. coli A 261 is on record as 200 units/ml; against Staph. aureus 133 it was below 0.8 units/ml; against Staph. aureus 1777 E, 12.5 units/ml; with Proteus vulg. 1017, 25 units/ml; against Proteus vulg. 3400 it was 100 units/ml; against Psdm. aerug. Walter, 100 units/ml. In the experiment with Psdm. aerug. Bonn, this compound yielded an MIC of 25 units/ml.

On to `CCCCOC(=O)N(C)C(=O)N[C@@H](C(=O)N[C@@H]1C(=O)N2[C@@H]1SC(C)(C)[C@@H]2C(=O)O)c1ccccc1` [Example 12, Sodium D(-)-α-(3-n-butoxycarbonyl-3-methyl-ureido)-benzylpenicillin], for which the MIC was 6.3 units/ml against E. coli 14; 100 units/ml with Klebsiella 63; 12.5 units/ml with E. coli 183/58; 200 units/ml in experiment [1]; 50 units/ml in the experiment with Klebsiella K 10; 50 units/ml against E. coli C 165. Moreover, the MIC with E. coli A 261 is above 400 units/ml; against Staph. aureus 133, 1.6 units/ml; with Staph. aureus 1777 E, 400 units/ml; against Proteus vulg. 1017, 100 units/ml; in the experiment on Proteus vulg. 3400, 100 units/ml; with Psdm. aerug. Walter, 200 units/ml. Further, the MIC against Psdm. aerug. Bonn turned out to be 400 units/ml.

Regarding `CN(C(=O)N[C@@H](C(=O)N[C@@H]1C(=O)N2[C@@H]1SC(C)(C)[C@@H]2C(=O)O)c1ccccc1)C(=O)c1cc(Cl)ccc1Cl` [Example 111, Sodium D(-)-α-(3-[2,5-dichlorobenzoyl]-3-methyl-ureido)-benzylpenicillin], the MIC is recorded as below 0.8 units/ml in the experiment with E. coli 14; 4-20 units/ml in the experiment on Klebsiella 63; below 0.8 units/ml in the experiment with E. coli 183/58; 4-20 units/ml in [1]; 4-20 units/ml in the experiment with Klebsiella K 10; 0.8-4 units/ml against E. coli C 165. For the same compound, the MIC in the experiment with E. coli A 261 is on record as 20-100 units/ml; with Staph. aureus 133, 0.8 units/ml; with Staph. aureus 1777 E, 4-20 units/ml; in the experiment on Proteus vulg. 1017, 0.8-4 units/ml; against Proteus vulg. 3400, 0.8-4 units/ml; in the experiment with Psdm. aerug. Walter it was 4-20 units/ml. Further, in the experiment on Psdm. aerug. Bonn, the MIC is recorded as 4-20 units/ml.

As to `CC(=O)N(C)C(=O)NC(C(=O)N[C@@H]1C(=O)N2[C@@H]1SC(C)(C)[C@@H]2C(=O)O)c1ccc(C)cc1` (stereo partly drawn) [Example 118, Sodium α-(3-acetyl-3-methyl-ureido)-4-methylbenzylpenicillin], the MIC in the experiment with E. coli 14 is recorded as 12.5 units/ml; with Klebsiella 63, 200 units/ml; with E. coli 183/58 it was 200 units/ml; in experiment [1], 50 units/ml; in the experiment on Klebsiella K 10, 100 units/ml; against E. coli C 165 it was 50 units/ml. For the same compound, the MIC is listed as above 400 units/ml in the experiment with E. coli A 261; 1.6 units/ml with Staph. aureus 133; 100 units/ml against Staph. aureus 1777 E; 100 units/ml with Proteus vulg. 1017; 200 units/ml in the experiment on Proteus vulg. 3400; 200 units/ml against Psdm. aerug. Walter. For the same compound, the MIC in the experiment on Psdm. aerug. Bonn is 200 units/ml.

As for `CSc1ccc(C(NC(=O)N2CCNC2=O)C(=O)N[C@@H]2C(=O)N3[C@@H]2SC(C)(C)[C@@H]3C(=O)O)cc1` (stereo partly drawn) [Example 55, Sodium α-[(imidazolidin-2-on-1-yl)-carbonylamino]-4-methylthiobenzylpenicillin], the MIC was 6,25 units/ml in the experiment with E. coli 14; 100 units/ml in the experiment on Klebsiella 63; 12,5 units/ml with E. coli 183/58; 50 units/ml in experiment [1]; 100 units/ml against Klebsiella K 10; 25 units/ml in the experiment on E. coli C 165. Also, the MIC against E. coli A 261 is above 400 units/ml; against Staph. aureus 133, < 0,78 units/ml; with Staph. aureus 1777 E, 200 units/ml; against Proteus vulg. 1017 it was 100 units/ml; with Proteus vulg. 3400, 100 units/ml; against Psdm. aerug. Walter, 25 units/ml. In the experiment with Psdm. aerug. Bonn, the MIC was 12,5 units/ml.

For the compound `CC1(C)S[C@@H]2[C@H](NC(=O)[C@H](NC(=O)N3CCNC3=S)c3ccccc3)C(=O)N2[C@H]1C(=O)O` [Example 147 A], the MIC against E. coli 14 was determined as 12.5 units/ml; against Klebsiella 63, 100 units/ml; in the experiment with E. coli 183/58, 100 units/ml; in experiment [1], 50 units/ml; with Klebsiella K 10 it was 200 units/ml; against E. coli C 165, 50 units/ml. For the same compound, the MIC is above 400 units/ml against E. coli A 261; below 0.8 units/ml with Staph. aureus 133; 100 units/ml in the experiment on Staph. aureus 1777 E; 50 units/ml with Proteus vulg. 1017; 50 units/ml against Proteus vulg. 3400; 200 units/ml in the experiment on Proteus vulg. 3400 (listed as 147 A). The MIC with Psdm. aerug. Walter came out at 200 units/ml; in the experiment on Psdm. aerug. Bonn it was 25 units/ml.
